Data as given in ChEMBL document CHEMBL5543059, “Discovery of anti-inflammatory natural flavonoids: Diverse scaffolds and promising leads for drug discovery” (Eur J Med Chem, 2023).

Tested on: BV-2
Assay: Antiinflammatory activity against mouse BV-2 cells assessed as reduction in LPS induced NO production measured for 24 hrs by Griess reagent based analysis
Format: functional, cell-based
Settings: BV-2, 24 h

Structure (SMILES)	IC50 [µM]
CNC(=N)NCCC[C@H](N)C(=O)O [TILARGININE]	14.8
Oc1cc(O)c2c(c1)O[C@@H](c1ccc(O)c(O)c1)[C@@H](O)C2 [(+)-EPICATECHIN]	29.1

Tested on: Peritoneal macrophage
Assay: Antiinflammatory activity in mouse peritoneal macrophages assessed as fold reduction in LPS-induced TNFalpha level at 20 uM incubated for 4 hrs by ELISA method
Format: functional
Settings: not given

Structure (SMILES)	fold change (FC)
O=C(O)Cc1ccccc1Nc1c(Cl)cccc1Cl [DICLOFENAC]	1.8

Tested on: RAW264.7
Assay: Anti-inflammatory activity in mouse RAW264.7 cells assessed as inhibition of LPS-induced nitric oxide production preincubated for 2 hrs followed by LPS stimulation and measured after 24 hrs by Griess assay
Format: functional, cell-based
Settings: not given

Structure (SMILES)	IC50 [µM]
CC(C)=CCc1c(O)ccc(-c2coc3c(CC=C(C)C)c(O)cc(O)c3c2=O)c1O	0.25
CC1(C)C=Cc2cc(-c3coc4cc(O)cc(O)c4c3=O)cc(O)c2O1	20
CC1(C)C=Cc2c(O)ccc(-c3coc4cc(O)cc(O)c4c3=O)c2O1	0.8

Tested on: BV-2
Assay: Antiinflammatory activity in mouse BV-2 cells assessed as reduction in LPS-induced NO production pre-treated with compound for 1 hr followed by LPS-stimulation and measured for 23 hrs by Griess reagent based analysis
Format: functional, cell-based
Settings: not given

Structure (SMILES)	IC50 [µM]
CC(=O)O[C@@H]1c2c(ccc3c(=O)c(O)c(-c4ccccc4)oc23)OC(C)(C)[C@@H]1OC(C)=O	11.3
COc1c(-c2ccc(O)c(O)c2)oc2c(CC=C(C)C)c3c(c(O)c2c1=O)C=CC(C)(C)O3	6.88
COc1cc2oc(-c3ccc4c(c3)OCO4)c(OC)c(=O)c2cc1OC	11.3
CC(C)=CCc1cc(-c2oc3cc(O)cc(O)c3c(=O)c2O)ccc1O [ISOLICOFLAVONOL]	2.88
COc1c(-c2ccccc2)oc2c3c(ccc2c1=O)OC(C)(C)[C@H](O)C3	11.3
COc1c(-c2ccc3c(c2)OCO3)oc2c(ccc3oc(C(C)(C)O)cc32)c1=O	11.3

Tested on: not listed separately
Assay: Anti-inflammatory activity in carrageenan-induced human PBMC cells assessed as inhibition of IL-beta leakage at 10 uM measured for 24 hrs relative to control
Format: functional
Parameters: scale not given: the % may be the effect or the level left
Settings: not given

Structure (SMILES)	Activity [%]
COc1ccc(-c2cc(=O)c3c(O)c(OC)c(OC)c(O)c3o2)cc1OC	34.4
COc1ccc(-c2cc(=O)c3c(O)c(OC)c(OC)cc3o2)cc1OC	16.8
COc1ccc(-c2cc(=O)c3c(O)c(OC)c(OC)c(OC)c3o2)cc1 [GARDENIN B]	33.8

Tested on: Neutrophil
Assay: Inhibition of fMLF/CB-induced human Neutrophil activation assessed as reduction in superoxide anion generation pre-incubated for 2 mins prior to CB induction for 3 mins followed by fMLF addition by spectrophotometric analysis
Format: functional, cell-based
Settings: not given

Structure (SMILES)	IC50 [µM]
COc1cc(O)c2c(=O)cc(-c3ccc(OC)c(OC)c3)oc2c1	≤ 12.5
COc1cc(O)c2c(=O)cc(-c3cc(OC)c(OC/C=C(\C)CCC=C(C)C)c(OC)c3)oc2c1	≤ 12.5
COc1cc(O)c2c(=O)cc(-c3ccc(OC)c(OC/C=C(\C)CCC=C(C)C)c3)oc2c1	≤ 12.5

Tested on: Mus musculus
Assay: Antiinflammatory activity against TPA-induced CD-1 mouse ear edema model assessed as reduction in ear edema at 1 uM relative to control
Format: functional
Parameters: scale not given: the % may be the effect or the level left
Settings: not given

Structure (SMILES)	Activity [%]
CC(=O)O[C@@H]1c2c(ccc3c(=O)c(O)c(-c4ccccc4)oc23)OC(C)(C)[C@@H]1OC(C)=O	12.28
O=C1c2c(O)cc(O)cc2O[C@H](c2ccc(O)c(O)c2)[C@H]1O [(+)-TAXIFOLIN]	12
O=C1c2c(O)cc(O)cc2O[C@H](c2ccccc2)[C@H]1O [PINOBAKSIN]	12.28

Tested on: BV-2
Assay: Anti-inflammatory activity in mouse BV-2 cells assessed as reduction in LPS-induced NO production pre-treated with compounds for 2 hrs followed by LPS-stimulation measured for 22 hrs by Griess reagent based analysis
Format: functional, cell-based
Settings: not given

Structure (SMILES)	IC50 [µM]
CC(C)=CCc1cc(C(=O)/C=C/c2ccc(O)cc2O)c(O)cc1O	2.26
COc1c([C@@H](CC(=O)c2ccccc2)OC)c(O)cc2occc12	29.2
COc1c(/C=C/C(=O)c2ccccc2)c(O)cc2occc12	10.9
CC(C)=CCc1c(O)ccc(C(=O)/C=C/c2cc3c(cc2O)OCO3)c1O	5.9

Tested on: RAW264.7
Assay: Antiinflammatory activity in LPS-activated mouse RAW264.7 cells assessed as inhibition of ROS production at 10 uM relative to control
Format: functional
Parameters: scale not given: the % may be the effect or the level left
Settings: not given

Structure (SMILES)	Activity [%]
COc1cc(O)ccc1/C=C/C(=O)c1ccc(O)cc1 [ECHINATIN]	80
COc1c(/C=C/C(=O)c2ccc(O)cc2)ccc(O)c1O	80
C=CC(C)(C)c1cc(/C=C/C(=O)c2ccc(O)cc2)c(OC)c(O)c1O	80

Tested on: RAW264.7
Assay: Anti-inflammatory activity in mouse RAW264.7 cells assessed as inhibition of LPS-induced nitric oxide production measured after 18 hrs by Griess assay
Format: functional, cell-based
Settings: RAW264.7, 18 h

Structure (SMILES)	IC50
Cc1c(O)c2c(c(C(=O)C(C)C)c1O)OC(c1ccccc1)CC2=O (stereo not drawn)	9.73 µM
Cc1c(O)c(C)c2c(c1O)C(=O)C[C@@H](c1ccc(O)c(O)c1)O2	20 µM
O=C1CC(c2ccc(O)cc2O)Oc2cc(O)cc(O)c21 (stereo not drawn) [STEPPOGENIN]	6.1 µg/mL

Tested on: Mus musculus
Assay: Antiinflammatory activity against TPA-induced CD-1 mouse ear edema model assessed as reduction in ear edema at 0.25 mg/kg relative to control
Format: functional
Parameters: scale not given: the % may be the effect or the level left
Settings: not given

Structure (SMILES)	Activity [%]
O=C1C[C@@H](c2ccccc2)Oc2cc(O)cc(O)c21 [PINOCEMBRIN]	67.4
COc1cc(O)c2c(c1)O[C@H](c1ccc(O)cc1)CC2=O [SAKURANETIN]	45.8

Tested on: RAW264.7
Assay: Antiinflammatory activity in mouse RAW264.7 cells assessed as decrease in LPS-induced IL-6 secretion after 24 hrs by ELISA method
Format: functional, cell-based
Settings: RAW264.7, 24 h

Structure (SMILES)	IC50 [µM]
COc1cc2c(c(C)c1OC)O[C@H](c1cc(O)c(OC)c(O)c1)CC2	18
COc1ccc2c(c1)O[C@H](c1ccc(O)cc1O)CC2	21.8
COc1ccc([C@@H]2CCc3cc(OC)c(O)cc3O2)cc1O	12.5

Tested on: RAW264.7
Assay: Antiinflammatory activity against mouse RAW264.7 cells assessed as reduction of LPS-induced NO production
Format: functional, cell-based
Settings: not given

Structure (SMILES)	IC50 [µM]
CC(C)=CCc1c([C@@H]2CCc3ccc(O)cc3O2)cc2c(c1O)OC(C)(C)C=C2 [KAZINOL B]	29.3
CC(C)=CCc1cc([C@@H]2CCc3ccc(O)cc3O2)ccc1O	28.4
